Reference: BigSolDB 2.1

Cc1ccc(NC(=O)/C(=C/Cl)Sc2ccccc2)cc1
solubility (mole fraction)
Conditions | 278.15 K | 283.15 K | 288.15 K | 293.15 K | 298.15 K | 303.15 K | 308.15 K | 313.15 K | 318.15 K
in 1,2-dichloroethane | 0.0353 | 0.0413 | 0.0512 | 0.0615 | 0.0773 | 0.0942 | 0.115 | 0.136 | 0.161
in 2-butanone | 0.0308 | 0.0365 | 0.0436 | 0.0529 | 0.0632 | 0.0772 | 0.0943 | 0.112 | 0.135
in 2-methyltetrahydrofuran | 0.0393 | 0.0466 | 0.0507 | 0.0604 | 0.0702 | 0.0858 | 0.103 | 0.126 | 0.145
in MTBE | 0.0068 | 0.0075 | 0.0092 | 0.0104 | 0.0132 | 0.0153 | 0.0187 | 0.0223 | 0.0277
in THF | 0.0849 | 0.0953 | 0.105 | 0.118 | 0.133 | 0.154 | 0.171 | 0.195 | 0.218
in acetone | 0.0216 | 0.0258 | 0.0296 | 0.0364 | 0.0452 | 0.0564 | 0.0707 | 0.0889 | 0.114
in acetonitrile | 0.0043 | 0.0051 | 0.0065 | 0.0086 | 0.0115 | 0.0148 | 0.02 | 0.0267 | 0.0362
in ethyl acetate | 0.0187 | 0.0233 | 0.0271 | 0.0331 | 0.0409 | 0.0522 | 0.0657 | 0.0794 | 0.0978
in isopropanol | 0.0019 | 0.0021 | 0.0025 | 0.0031 | 0.0041 | 0.0048 | 0.0063 | 0.0075 | 0.0093
in methyl acetate | 0.0153 | 0.0195 | 0.0228 | 0.028 | 0.0352 | 0.0471 | 0.0572 | 0.0693 | 0.0797
in tert-amyl alcohol | 0.0013 | 0.0015 | 0.0018 | 0.0026 | 0.0034 | 0.005 | 0.0068 | 0.0096 | 0.0129
in toluene | 0.014 | 0.0165 | 0.0202 | 0.0266 | 0.0318 | 0.0443 | 0.0551 | 0.069 | 0.0876
